In brackets after ≈: the same amount, converted by molar mass. Like-named read-outs stand apart in the source and are kept apart here.
What was measured:
Assay in all cases: In vitro antibacterial activity, microtitration dilution method (MIC)
Type in all cases: cell-based
[1] = test system: Streptococcus pyogenes C-203; details: C203; Streptococcus pyogenes C-203, microtitration dilution; read-out: Minimal Inhibitory Concentration MIC
Text: (§1) The compounds of the invention display antibacterial activity when tested by the microtitration dilution method as described in Heifetz, et al, Antimicr. Agents & Chemoth., 6, 124 (1974), which is incorporated herein by reference. By use of this method, the followed minimum inhibitory concentration values (MICs in μg/mL) were obtained for representative compounds of the invention.

[2] = test system: Providencia rettgeri M 1771; details: M1771; Providencia rettgeri M 1771, microtitration dilution; read-out: Minimal Inhibitory Concentration MIC
Text: as §1

[3] = test system: Staphylococcus aureus H 228; details: H228; Staphylococcus aureus H 228, microtitration dilution; read-out: Minimal Inhibitory Concentration MIC
Text: as §1

[4] = test system: Escherichia coli Vogel; details: Escherichia coli Vogel, microtitration dilution; read-out: Minimal Inhibitory Concentration MIC
Text: as §1

[5] = test system: Enterobacter cloacae MA 2646
Text: as §1

[6] = test system: Streptococcus pneumoniae SV-1; details: SV1; Streptococcus pneumoniae SV-1, microtitration dilution; read-out: Minimal Inhibitory Concentration MIC
Text: (§2) Agents & Chemoth., 6, 124 (1974), which is incorporated herein by reference.

[7] = test system: Klebsiella pneumoniae MGH-2
Text: as §2

[8] = test system: Staphylococcus aureus UC-76; details: UC76; Staphylococcus aureus UC-76, microtitration dilution; read-out: Minimal Inhibitory Concentration MIC
Text: as §2

[9] = test system: Streptococcus faecalis MGH-2; details: Enterococcus faecalis, MGH2; Streptococcus faecalis MGH-2, microtitration dilution; read-out: Minimal Inhibitory Concentration MIC
Text: as §2

[10] = test system: Pseudomonas aeruginosa UI-18
Text: as §2

[11] = UI18, Pseudomonas aeruginosa UI-18, microtitration dilution, read-out: Minimal Inhibitory Concentration MIC
[12] = MA2646, Enterobacter cloacae MA 2646, microtitration dilution, read-out: Minimal Inhibitory Concentration MIC
[13] = MGH2, Klebsiella pneumoniae MGH-2, microtitration dilution, read-out: Minimal Inhibitory Concentration MIC

Row | SMILES | MIC [1] | MIC [2] | MIC [3] | MIC [4] | MIC ([5]; Enterobacter cloacae, MA2646, read-out: Minimal Inhibitory Concentration MIC) | MIC [6] | MIC ([7]; Klebsiella pneumoniae, MGH2, read-out: Minimal Inhibitory Concentration MIC) | MIC [8] | MIC [9] | MIC [10, 11] | MIC [5, 12] | MIC [7, 13] | MIC ([10]; Pseudomonas aeruginosa, UI18, read-out: Minimal Inhibitory Concentration MIC)
1 | Cc1c(F)c(N2CCC(C)(CN)C2)c(F)c2c1c(=O)c(C(=O)O)cn2C1CC1 (stereo not drawn) [Ex. 4, 7-[3-(Aminomethyl)-3-methyl-1-pyrrolidinyl]-1-cyclopropyl-6,8-difluoro-1,4-dihydro-5-methyl-4-oxo-3-quinolinecarboxylic acid] | 0.003 µg/mL (≈ 0.00766 µM) | 0.2 µg/mL (≈ 0.511 µM) | 0.006 µg/mL (≈ 0.0153 µM) | 0.05 µg/mL (≈ 0.128 µM) | 0.05 µg/mL (≈ 0.128 µM) | 0.003 µg/mL (≈ 0.00766 µM) | 0.1 µg/mL (≈ 0.255 µM) | 0.003 µg/mL (≈ 0.00766 µM) | 0.025 µg/mL (≈ 0.0639 µM) | 0.8 µg/mL (≈ 2.04 µM) | – | – | –
2 | Cc1c(F)c(N2CCNC(C)C2)c(F)c2c1c(=O)c(C(=O)O)cn2C1CC1 (stereo not drawn) [Ex. 5, 1-Cyclopropyl-6,8-difluoro-1,4-dihydro-5-methyl-7-[3-methyl-1-piperazinyl]-4-oxo-3-quinolinecarboxylic acid] | 0.006 µg/mL (≈ 0.0159 µM) | 0.1 µg/mL (≈ 0.265 µM) | 0.025 µg/mL (≈ 0.0662 µM) | 0.05 µg/mL (≈ 0.132 µM) | – | 0.025 µg/mL (≈ 0.0662 µM) | – | 0.013 µg/mL (≈ 0.0344 µM) | 0.1 µg/mL (≈ 0.265 µM) | – | 0.025 µg/mL (≈ 0.0662 µM) | 0.05 µg/mL (≈ 0.132 µM) | 0.4 µg/mL (≈ 1.06 µM)
3 | Cc1c(F)c(N2CCNCC2)cc2c1c(=O)c(C(=O)O)cn2C1CC1 [Ex. 6, 1-Cyclopropyl-6-fluoro-1,4-dihydro-5-methyl-4-oxo-7-(1-piperazinyl)-3-quinolinecarboxylic acid] | 0.1 µg/mL (≈ 0.29 µM) | 0.1 µg/mL (≈ 0.29 µM) | 0.1 µg/mL (≈ 0.29 µM) | 0.013 µg/mL (≈ 0.0376 µM) | – | 0.05 µg/mL (≈ 0.145 µM) | – | 0.025 µg/mL (≈ 0.0724 µM) | 0.05 µg/mL (≈ 0.145 µM) | 0.2 µg/mL (≈ 0.579 µM) | 0.013 µg/mL (≈ 0.0376 µM) | 0.05 µg/mL (≈ 0.145 µM) | –
